{
  "source": "paper PMC9321894",
  "about": "“Design and Anticancer Properties of New Water-Soluble Ruthenium–Cyclopentadienyl Complexes” (Pharmaceuticals, 2022)",
  "key": {"Solubility in water": {"experiment": "Solubility in water", "format": "physicochemical", "settings": "in presence of air, 25 °C"}, "[1]": {"experiment": "Stability in water in presence of air (UV-vis, 1H and 31P NMR)", "format": "physicochemical", "protocol": "The stability of all the complexes in water was evaluated by ^31P NMR and UV–visible spectroscopies. Generally, a 5 mm NMR tube was charged in the air with the 10 mg of each complex and D2O (0.8 mL). ^1H NMR and ^31P NMR were monitored for four days to evaluate if there was any decomposition product. Decomposition/instability of the compound can be assessed by the disappearance of the NMR signals and/or by the appearance of new signals that could not be assigned to the known complex, beyond the appearance of free mTPPMS phosphine signals. Any eventual changes in the charge transfer bands between ruthenium and ligands were followed by UV–visible in the 300–900 nm range."}, "HT29 colon cancer cells": {"test_system": "HT29 colon cancer cells", "experiment": "MTT cytotoxicity assay, HT29", "format": "cell-based, human", "settings": "HT29, 72 h, mean ± SD n = 3", "protocol": "The cytotoxic activity of all complexes was screened against A2780 (ovarian, Sigma-Aldrich, Lisboa, Portugal), MDAMB231 (breast, triple negative, ATCC), and HT29 (colon, ATCC) human cancer cells. Cells were grown in RPMI 1640 (A2780) or DMEM containing GlutaMax-I (MDAMB231), or McCoy’s (HT29) supplemented with 10% FBS and 1% penicillin/streptomycin (Invitrogen, Lisboa, Portugal). All cell lines were kept in a CO2 incubator (Heraeus, Hanau, Germany) with 5% CO2 at 37 °C in a humidified atmosphere. Cell viability was measured using the colorimetric MTT (3-(4,5-dimethylthiazol-2-yl)-2,5-diphenyltetrazolium bromide) assay. For the assays, cells were seeded in 200 μL of complete medium in 96-well plates and incubated at 37 °C for 24 h prior to complex treatment to allow cell adherence. The stock solutions in water (20 mM) of the complexes were freshly prepared and used for sequential dilutions in medium within the concentration range of 10^−10–10^−4 M. Cisplatin was also included in this study as a positive control. After careful removal of the medium, […] of a serial dilution of compounds in fresh medium was added to the cells, and incubation was carried out for 72 h at 37 °C. At the end of the treatment, the medium was discarded, and the cells were incubated with […] of an MTT solution in PBS (0.5 mg mL^−1). After 3 h incubation, medium was removed, and DMSO was added to solubilize the purple formazan crystals formed. The absorbance at 570 nm was measured using a plate spectrophotometer (Power Wave Xs, Bio-Tek, Winooski, VT, USA). Each experiment was repeated at least three times and each concentration tested in at least six replicates. The IC50 values were calculated from dose–response curves analyzed with the GraphPad Prism software (version 5.0)."}, "[2]": {"target": "T1, human serum albumin (HSA) (Homo sapiens, UniProt P02768)", "T1 construct": "purchased Sigma-Aldrich A1653", "T1 sequence (P02768 25-609)": "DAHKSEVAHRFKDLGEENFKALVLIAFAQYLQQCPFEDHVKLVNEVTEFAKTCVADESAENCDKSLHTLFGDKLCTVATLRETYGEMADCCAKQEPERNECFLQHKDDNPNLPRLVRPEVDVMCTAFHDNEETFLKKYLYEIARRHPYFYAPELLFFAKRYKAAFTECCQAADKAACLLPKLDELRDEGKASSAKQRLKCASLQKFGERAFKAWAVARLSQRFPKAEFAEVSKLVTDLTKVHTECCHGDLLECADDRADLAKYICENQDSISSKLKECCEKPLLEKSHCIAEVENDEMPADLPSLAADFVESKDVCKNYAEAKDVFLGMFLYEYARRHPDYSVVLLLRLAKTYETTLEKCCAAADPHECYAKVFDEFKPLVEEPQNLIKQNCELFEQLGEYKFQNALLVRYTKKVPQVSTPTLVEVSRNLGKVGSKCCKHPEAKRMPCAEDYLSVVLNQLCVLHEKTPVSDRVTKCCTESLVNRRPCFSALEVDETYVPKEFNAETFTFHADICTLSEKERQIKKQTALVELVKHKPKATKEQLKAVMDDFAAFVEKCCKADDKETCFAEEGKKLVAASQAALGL", "experiment": "Fluorescence quenching of HSA (Trp214)", "format": "binding", "settings": "for KSV: pH 7.4", "protocol": "Human serum albumin (HSA) was dissolved in 10 mM HEPES buffer (pH 7.4). The HSA concentration was determined spectrophotometrically using the absorbance value at 280 nm (ε280 = 36,500 M^−1cm^−1). Complex 6 was dissolved in 10 mM HEPES buffer (pH 7.4). A series of ruthenium-protein batch solutions were prepared by adding different concentrations of ruthenium solutions to the protein solution prepared previously. For fluorescence acquisition, the final HSA concentration was 2.5 μM, and the ruthenium were 0, 0.6, 1.2, 1.8, 2.5, 5, 7.5, 10, 12.5, 15, 17.5, 20, 22.5, 25, 27.5, 30, 32.5, 35, 37.5, 40, 42.5, and 45 μM. […] The reference solutions were prepared following the procedures described above without protein.\nSteady-state fluorescence measurements were carried out with a Fluorolog Model-3.22 spectrofluorometer from Horiba Jobin Yvon at 293.15, 298.15, and 310.15 K. All measurements were performed in Hellma® semi-micro fluorescence cuvettes (Suprasil® quartz, path length 10 × 4 mm, chamber volume […]) with the 10 mm path length for the excitation of the sample. The excitation and emission slit widths were fixed at 4.0 nm, and the excitation wavelength was set at 295 nm to selectively excite the tryptophan 214 residue. The emission spectra were recorded from 305 to 550 nm. Solutions of ruthenium complex in 10 mM HEPES buffer pH 7.4 in corresponding concentrations were used as reference for the measured fluorescence spectra of protein-complex mixtures. […] The fluorescence intensities were corrected for the absorption of the exciting light and re-absorption of the emitted light to decrease the inner filter effect using UV–visible absorption data recorded for each sample on a Jasco V-660 spectrophotometer in the range of 260 to 900 nm with 1 cm path quartz cells.\nFluorescence quenching of HSA by complex [Ru(η5-C5H5)(mTPPMS)(bopy)][CF3SO3] (6) […]\nF0 = 1 + K τ (Q) = 1 + K (Q) (S1) where F0 and F are the fluorescence intensities of HSA in the absence and presence of the quencher [Ru(η5-C5H5)(mTPPMS)(bopy)][CF3SO3]; [Q] is the quencher concentration; Kq is the bimolecular quenching constant; t0 is the average fluorescence lifetime of HSA in the absence of the quencher, and KSV is the Stern-Volmer quenching constant.\nFigure S10. Stern-Volmer plots at pH7.4 for the quenching of (A) HSA and (B) HSA faf by [Ru(η5-C5H5)(mTPPMS)(bopy)][CF3SO3] at three temperatures (◆) 293 K, (●) 298 K, (▲) 310 K.\nlog(F0 − F) = log K + nlog[Q] ( S2) […]\nwhere Ka is the association constant for a site and n is the number of binding sites by protein.\nFigure S11. Double-log plots for the fluorescence quenching for the (A) {HSA-[Ru(η5-C5H5)(mTPPMS)(bopy)][CF3SO3]} and (B) {HSAfaf-[Ru(η5-C5H5)(mTPPMS)(bopy)][CF3SO3]} systems at three temperatures (◆) 293 K, (●) 298 K, (▲) 310 K. […]"}},
  "note": "Marks after values point to notes of the source that are not given here.",
  "data": [
    {"substance": "[RuCp(mTPPMSNa)(bopy)][CF3SO3] [Compound 6]", "values": [
      {"measurement": "S(H2O)", "setting": "Solubility in water", "result": 15.3, "unit": "mg/mL"},
      {"measurement": "S(H2O)", "setting": "Solubility in water; value in brackets", "result": 0.015, "unit": "M"},
      {"measurement": "Changes in the UV–vis spectra in aqueous solution", "setting": "[1]; over 4 days at 37 °C", "result": "insignificant"},
      {"measurement": "Stability in water, Time (Days)", "setting": "[1]; water, in presence of air, 25 °C, time without hydrolysis", "result": ">4 ^[b] Days"},
      {"measurement": "IC50", "setting": "HT29 colon cancer cells", "result": "72.4 ± 50", "unit": "µM"},
      {"measurement": "Ka (association constant for a site)", "setting": "[2]; 293.15 K", "result": "(38.806 ± 1.26) × 10^4 L mol^−1"},
      {"measurement": "Kq", "setting": "[2]; 293.15 K", "result": "(7.91 ± 0.10) × 10^12 L mol^−1 s^−1"},
      {"measurement": "n (number of binding sites)", "setting": "[2]; 293.15 K", "result": 1.136},
      {"measurement": "ΔG", "setting": "[2]; 293.15 K", "result": -17.3, "unit": "kcal/mol"},
      {"measurement": "KSV", "setting": "[2]; 293.15 K", "result": "(7.91 ± 0.10) × 10^4 L mol^−1"},
      {"measurement": "Ka (association constant for a site)", "setting": "[2]; 298.15 K", "result": "(19.467 ± 1.14) × 10^4 L mol^−1"},
      {"measurement": "Kq", "setting": "[2]; 298.15 K", "result": "(8.73 ± 0.12) × 10^12 L mol^−1 s^−1"},
      {"measurement": "n (number of binding sites)", "setting": "[2]; 298.15 K", "result": 1.053},
      {"measurement": "ΔG", "setting": "[2]; 298.15 K", "result": -17.64, "unit": "kcal/mol"},
      {"measurement": "KSV", "setting": "[2]; 298.15 K", "result": "(8.73 ± 0.12) × 10^4 L mol^−1"},
      {"measurement": "Ka (association constant for a site)", "setting": "[2]; 310.15 K", "result": "(13.948 ± 1.15) × 10^4 L mol^−1"},
      {"measurement": "Kq", "setting": "[2]; 310.15 K", "result": "(10.4 ± 0.15) × 10^12 L mol^−1 s^−1"},
      {"measurement": "n (number of binding sites)", "setting": "[2]; 310.15 K", "result": 0.994},
      {"measurement": "ΔG", "setting": "[2]; 310.15 K", "result": -18.47, "unit": "kcal/mol"},
      {"measurement": "KSV", "setting": "[2]; 310.15 K", "result": "(10.4 ± 0.15) × 10^4 L mol^−1"},
      {"measurement": "ΔH", "setting": "[2]; Van't Hoff, 293.15-310.15 K", "result": "11.99 (R^2 = 0.9963) kJ mol^−1"},
      {"measurement": "ΔS", "setting": "[2]; Van't Hoff, 293.15-310.15 K", "result": 287.92, "unit": "J mol^−1 K^−1"},
      {"measurement": "Quenching of fluorescence intensity", "setting": "[2]; highest Ru concentration (45 μM), pH 7.4, incubation at 298 K for 24 h", "result": 75, "unit": "%"}
    ]}
  ]
}
